Source: US10834950B2, “Organic compounds” (GIVAUDAN SA, priority 2013, dated 2020)

What was measured:
[1] = Umami base flavour (aqueous NaCl, MSG, ribonucleotides) tasting by panel
[2] = Diluted soy sauce tasting by panel; conditions: 5 ppm added to diluted soy sauce
[3] = Milk drink (semi skim milk) tasting by panel; conditions: 5 ppm added to semi skim milk drink
[4] = Beef bouillon tasting by a panel of experienced tasters; conditions: 40 ppb added to beef bouillon
Protocol: A beef bouillon was prepared using bouillon cubes obtained from a local supermarket.

[5] = 5 ppm added to umami base flavour

SMILES: CCCCCCCCCCCCCC(=O)NC(Cc1c[nH]c2ccccc12)C(=O)O (stereo not drawn) [3-(1H-indol-3-yl)-2-tetradecanamidopropanoic acid]
- taste of umami base compared to the reference (panel) [1, 5]: more umami than the reference
- taste of soy sauce compared to the reference (panel) [2]: more mouthfeel, and fuller compared to the reference
- taste of milk drink compared to the reference (panel) [3]: very creamy aftertaste, and a nice and slightly dryness at the front compared to the reference

SMILES: CCCCCC/C=C\CCCC(=O)NC(Cc1ccccc1)C(=O)O (stereo not drawn) [Example 1, (Z)-2-(Dodec-5-enamido)-3-phenylpropanoic acid]
- taste of bouillon compared to the reference (panel) [4]: more umami, slightly more sweet, and the overall flavor profile lasts longer than the reference

SMILES: CCCCCC/C=C\CCCC(=O)NC(Cc1c[nH]c2ccccc12)C(=O)O (stereo not drawn) [(Z)-2-(dodec-5-enamido)-3-(1H-indol-3-yl)propanoic acid]
- taste of umami base compared to the reference (panel) [1, 5]: more umami than the reference
- taste of milk drink compared to the reference (panel) [3]: slightly increased creamy than the reference

SMILES: CCCCCC/C=C\CCCC(=O)NC(Cc1ccc(O)cc1)C(=O)O (stereo not drawn) [Example 2, (Z)-2-(Dodec-5-enamido)-3-(4-hydroxyphenyl)propanoic acid]
- taste of bouillon compared to the reference (panel) [4]: slightly more umami, slightly more bitter and sweeter than the reference

SMILES: CCCCCCCCCCCC(=O)NC(Cc1c[nH]c2ccccc12)C(=O)O (stereo not drawn) [2-(dodecanoylamino)-3-(1H-indol-3-yl)propanoic acid]
- taste of umami base compared to the reference (panel) ([1]; 20 ppm added to umami base flavour): more fatty mouthfeel than the reference

SMILES: CCCCCCCCCCCC(=O)NC(Cc1ccccc1)C(=O)O (stereo not drawn) [Example 3, 2-(Dodecanoylamino)-3-phenylpropanoic acid]
- taste of umami base compared to the reference (panel) ([1]; 50 ppm added to umami base flavour): more umami, and thicker, possessed a lot of mouthfeel and a nice body, and provided a cleaner taste than the reference
